Tests used:
[1] = tested on: pro-inflammatory cytokine IL1β; experiment: Cuprizone model: IL1β mRNA in cerebellum lysates by PCR
Text: Identifying the mRNA levels of pro-inflammatory cytokine IL1β in mouse cerebellum lysates (Fig 11).

[2] = tested on: Ebi2 receptor; experiment: Ebi2 mRNA level in the cerebellum, cuprizone model; type: in vivo, mice; details: during remyelination in the cuprizone model
[3] = tested on: lymphocytes; experiment: Short-term pharmacology model: blood count after a single injection; type: in vivo, mice; details: single subcutaneous injection
Method: Mouse groups in the short-term pharmacology model (Fig 10): Control: one vehicle injection (canola oil). The number of lymphocytes in the group is marked on the graph with the transverse line. The vehicle injection was administered to the mice subcutaneously (100 µl), following which the mice were euthanized after 6 hours (8 mice), 12 hours (8 mice), 24 hours (8 mice), or 48 hours (8 mice).
The 0.8 mg/kg dose group: single injection with CF3-7α,25OHC at the dose of 0.8 mg/kg. The oxysterol injection was administered to the mice subcutaneously (100 µl), following which the mice were euthanized after 6 hours (8 mice), 12 hours (8 mice), 24 hours (8 mice), or 48 hours (8 mice).
The 4 mg/kg dose group: single injection with CF3-7α,25OHC at the dose of 4 mg/kg. The oxysterol injection was administered to the mice subcutaneously (100 µl), following which the mice were euthanized after 6 hours (8 mice), 12 hours (8 mice), 24 hours (8 mice), or 48 hours (8 mice).
The 20 mg/kg dose group: a single injection with CF3-7α,25OHC at the dose of 20 mg/kg. The oxysterol injection was administered to the mice subcutaneously (100 µl), following which the mice were euthanized after 6 hours (8 mice), 12 hours (8 mice), 24 hours (8 mice), or 48 hours (8 mice).
The 100 mg/kg dose group: a single injection with CF3-7α,25OHC at the dose of […]. […]

[4] = tested on: Ch25h, Cyp7b1, Hsd3b7; experiment: mRNA level of synthesizing and degrading enzymes in the cerebellum, cuprizone model; type: in vivo, mice
[5] = tested on: mice in the cuprizone model; experiment: Cuprizone model: mass spectrometer imaging and lipid quantification in brain sections; type: in vivo
Text: Measurement of lipoprotein density in myelin sheaths, taken on sections of brains of the mice in the cuprizone model. The mice in the cuprizone model subject were divided into 6 groups: • #1. control group: regular cuprizone-free chow for 9 weeks. The mice were euthanised after 9 weeks and tissue samples were taken for analysis. In these mice no removal of myelin sheaths occurred. • #2. control group with cuprizone: chow containing cuprizone for 9 weeks. The mice were euthanised after 9 weeks and tissue samples were taken for analysis. In the mice fed with chow containing cuprizone myelin sheaths were removed. • #3. vehicle control group - the mice were fed with chow containing cuprizone for 9 weeks, and then with regular chow without cuprizone for 2 weeks. Over the 2 weeks on regular show the mice in the vehicle control group were first injected with vehicle #1: DMSO, intraperitoneally, 150 µl once a day, and then with vehicle #2: canola oil, subcutaneously, 150 µl once a day. • #4. barbadin control group - the mice were fed with chow containing cuprizone for 9 weeks and then with regular chow without cuprizone for 2 weeks. […]
Mouse brain sections were imaged using a mass spectrometer and then the lipid density was quantified (Fig 4). […]

C[C@H](CCCC(C)(C)O)[C@H]1CC[C@H]2[C@H]3[C@H](CC[C@]12C)[C@@]1(C)CC[C@H](O)CC1=C[C@]3(O)C(F)(F)F [CF3-7α,25OHC, cholestene-7β-trifluoromethyl,3β,7α,25-triol]
mRNA level of IL1β dropped by ([1]; cerebellum lysates, cuprizone model, compared to the group treated solely with vehicles): 28% | blood-brain barrier penetration ([1]; concluded from the IL1β effect in the cerebellum): penetrates the blood-brain barrier | pro-inflammatory cytokine IL1β in cerebellum lysates ([1]; cuprizone model, group #5): Reduction | level of Ebi2 expression [2]: increases the level of Ebi2 expression | duration of the lymphocyte-reducing effect following administration [3]: 24 h | lowest dose that reduces the level of lymphocytes ([3]; doses 0.8, 4, 20, 100 mg/kg, blood count after 6, 12, 24 or 48 hours): 4 mg/kg | expression level of the synthesizing (Ch25h, Cyp7b1) and degrading (Hsd3b7) enzymes [4]: does not regulate the expression level | content of cholesterol in the corpus callosum ([5]; group E (CF3-7α,25OHC 20 mg/kg) compared to control group treated with vehicles): higher | number of lipids with higher synthesis / concentration in the corpus callosum (brain) ([5]; group E compared to untreated group C): 15
